Data published in PubChem BioAssay (NCI).
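Growth conditions: 96-well plates. Treatment: test compound, 48 hours, 5 concentrations. Analysis: linear interpolation between bracketing concentrations; unreached endpoints set to highest concentration. Definition used: TGI = concentration required for complete inhibition of growth.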

What was measured:
Test in all cases: NCI tumour cell line growth inhibition, 48 h
[1] = tested on: SNB-75 CNS
[2] = tested on: HT29 colon
[3] = tested on: EKVX NSCLC
[4] = tested on: KM20L2 colon
[5] = tested on: U251 CNS
[6] = tested on: SNB-78 CNS
[7] = tested on: SNB-19 CNS
[8] = tested on: IGROV1 ovarian
[9] = tested on: A549 NSCLC
[10] = tested on: SF-268 CNS
[11] = tested on: SF-295 CNS
[12] = tested on: MALME-3M melanoma
[13] = tested on: OVCAR-8 ovarian
[14] = tested on: RPMI-8226 leukemia
[15] = tested on: UACC-257 melanoma
[16] = tested on: SK-OV-3 ovarian
[17] = tested on: HCT-116 colon
[18] = tested on: RXF 393 renal
[19] = tested on: KM12 colon
[20] = tested on: CAKI-1 renal
[21] = tested on: HCT-15 colon
[22] = tested on: SF-539 CNS
[23] = tested on: OVCAR-3 ovarian
[24] = tested on: SK-MEL-2 melanoma
[25] = tested on: ACHN renal
[26] = tested on: SK-MEL-28 melanoma
[27] = tested on: M19-MEL melanoma
[28] = tested on: HCC-2998 colon
[29] = tested on: OVCAR-5 ovarian
[30] = tested on: SN12C renal
[31] = tested on: COLO 205 colon
[32] = tested on: DMS 114 small cell lung
[33] = tested on: NCI-H460 lung
[34] = tested on: HL-60(TB) leukemia
[35] = tested on: NCI-H23 lung
[36] = tested on: M14 melanoma
[37] = tested on: HOP-62 NSCLC
[38] = tested on: 786-0 renal
[39] = tested on: NCI-H522 lung
[40] = tested on: DMS 273 small cell lung
[41] = tested on: CCRF-CEM leukemia
[42] = tested on: LXFL 529 NSCLC
[43] = tested on: SR leukemia
[44] = tested on: K-562 leukemia
[45] = tested on: SW-620 colon
[46] = tested on: SK-MEL-5 melanoma
[47] = tested on: DLD-1 colon
[48] = tested on: HOP-18 NSCLC
[49] = tested on: OVCAR-4 ovarian
[50] = tested on: UO-31 renal
[51] = tested on: MOLT-4 leukemia
[52] = tested on: NCI-H226 lung
[53] = tested on: HOP-92 NSCLC
[54] = tested on: XF 498 CNS
[55] = tested on: UACC-62 melanoma
[56] = tested on: LOX IMVI melanoma
[57] = tested on: TK-10 renal
[58] = tested on: A498 renal

Molecule COC1OC(C)C(OCc2ccccc2)C(OS(=O)(=O)c2ccc(C)cc2)C1OS(=O)(=O)c1ccc(C)cc1 (centres undefined) has a TGI [1] greater than 100 µM, a TGI [2] greater than 100 µM and a TGI [3] greater than 100 µM. The TGI [4] was greater than 100 µM, the TGI [5] was greater than 100 µM and the TGI [6] was greater than 100 µM. It also gave a TGI [7] greater than 100 µM, a TGI [8] greater than 100 µM and a TGI [9] greater than 100 µM. It also gave a TGI [10] greater than 100 µM, a TGI [11] greater than 100 µM and a TGI [12] greater than 100 µM. It also gave a TGI [13] greater than 100 µM, a TGI [14] greater than 100 µM and a TGI [15] greater than 100 µM. For the same molecule, the TGI [16] was greater than 100 µM, the TGI [17] was greater than 100 µM and the TGI [18] was greater than 100 µM. The TGI [19] was greater than 100 µM, the TGI [20] was greater than 100 µM and the TGI [21] was greater than 100 µM. It also gave a TGI [22] greater than 100 µM, a TGI [23] greater than 100 µM and a TGI [24] greater than 100 µM. The TGI [25] was greater than 100 µM, the TGI [26] was greater than 100 µM and the TGI [27] was greater than 100 µM. For the same molecule, the TGI [28] was greater than 100 µM, the TGI [29] was greater than 100 µM and the TGI [30] was greater than 100 µM. For the same molecule, the TGI [31] was greater than 100 µM, the TGI [32] was greater than 100 µM and the TGI [33] was greater than 100 µM. The TGI [34] was greater than 100 µM, the TGI [35] was greater than 100 µM and the TGI [36] was greater than 100 µM. The TGI [37] was greater than 100 µM, the TGI [38] was greater than 100 µM and the TGI [39] was greater than 100 µM. The TGI [40] was greater than 100 µM, the TGI [41] was greater than 100 µM and the TGI [42] was greater than 100 µM. It also gave a TGI [43] greater than 100 µM, a TGI [44] greater than 100 µM and a TGI [45] greater than 100 µM. For the same molecule, the TGI [46] was greater than 100 µM, the TGI [47] was greater than 100 µM and the TGI [48] was greater than 100 µM. It also gave a TGI [49] greater than 100 µM, a TGI [50] greater than 100 µM and a TGI [51] greater than 100 µM. The TGI [52] was greater than 100 µM.
O=C(NC12CC3CC(CC(C3)C1)C2)C(=O)c1c[nH]c2ccc(Cl)cc12 showed a TGI [1] of 52.1 µM, a TGI [2] greater than 100 µM and a TGI [3] greater than 100 µM. For the same molecule, the TGI [4] was greater than 100 µM, the TGI [5] was greater than 100 µM and the TGI [6] was greater than 100 µM. For the same molecule, the TGI [7] was greater than 100 µM, the TGI [8] was greater than 100 µM and the TGI [9] was greater than 100 µM. The TGI [10] was greater than 100 µM, the TGI [11] was 65.2 µM and the TGI [12] was greater than 100 µM. It also gave a TGI [14] greater than 100 µM, a TGI [15] greater than 100 µM and a TGI [16] greater than 100 µM. For the same molecule, the TGI [17] was greater than 100 µM, the TGI [19] was greater than 100 µM and the TGI [21] was greater than 100 µM. For the same molecule, the TGI [22] was greater than 100 µM, the TGI [23] was 57.6 µM and the TGI [24] was 89.4 µM. It also gave a TGI [25] greater than 100 µM, a TGI [26] greater than 100 µM and a TGI [27] greater than 100 µM. For the same molecule, the TGI [28] was greater than 100 µM, the TGI [29] was greater than 100 µM and the TGI [30] was greater than 100 µM. For the same molecule, the TGI [31] was greater than 100 µM, the TGI [32] was greater than 100 µM and the TGI [33] was greater than 100 µM. It also gave a TGI [34] greater than 100 µM, a TGI [35] greater than 100 µM and a TGI [36] greater than 100 µM. For the same molecule, the TGI [53] was 53.2 µM, the TGI [37] was 66.2 µM and the TGI [38] was 34.6 µM. The TGI [39] was greater than 100 µM, the TGI [54] was 43 µM and the TGI [40] was greater than 100 µM. The TGI [41] was greater than 100 µM, the TGI [42] was greater than 100 µM and the TGI [43] was greater than 100 µM. It also gave a TGI [44] greater than 100 µM, a TGI [46] greater than 100 µM and a TGI [55] greater than 100 µM. For the same molecule, the TGI [49] was 56 µM, the TGI [50] was greater than 100 µM and the TGI [56] was 84.8 µM. It also gave a TGI [51] greater than 100 µM and a TGI [52] greater than 100 µM.
Cc1nnc(N/N=C(/C(=O)C(C#N)c2ccccc2)C(C#N)c2ccccc2)n1N (centres undefined) gave a TGI [1] of 34.7 µM, a TGI [2] greater than 65.7 µM and a TGI [3] greater than 100 µM. It also gave a TGI [4] greater than 100 µM, a TGI [5] greater than 83.1 µM and a TGI [6] greater than 90 µM. It also gave a TGI [7] greater than 100 µM, a TGI [8] greater than 95.9 µM and a TGI [9] of 49.3 µM. The TGI [10] was greater than 61.3 µM, the TGI [11] was 13.7 µM and the TGI [12] was 9.29 µM. It also gave a TGI [13] of 15.2 µM, a TGI [14] of 85.8 µM and a TGI [57] greater than 100 µM. The TGI [15] was 13.2 µM, the TGI [16] was greater than 100 µM and the TGI [17] was greater than 55.7 µM. The TGI [18] was 24.1 µM, the TGI [19] was greater than 55.4 µM and the TGI [20] was greater than 56 µM. The TGI [21] was greater than 53 µM, the TGI [22] was greater than 65.2 µM and the TGI [23] was 53.3 µM. It also gave a TGI [24] of 12.5 µM, a TGI [25] of 65.5 µM and a TGI [26] of 36.1 µM. The TGI [27] was 25.2 µM, the TGI [28] was 11 µM and the TGI [29] was greater than 57 µM. The TGI [30] was 16.6 µM, the TGI [31] was 14 µM and the TGI [32] was 13.4 µM. For the same molecule, the TGI [33] was 12.6 µM, the TGI [34] was 57.8 µM and the TGI [35] was 17.8 µM. It also gave a TGI [36] of 31.2 µM, a TGI [53] greater than 100 µM and a TGI [37] greater than 100 µM. The TGI [38] was 25 µM, the TGI [39] was 56.1 µM and the TGI [40] was 34.4 µM. The TGI [41] was 15.9 µM, the TGI [42] was 10.6 µM and the TGI [43] was greater than 100 µM. For the same molecule, the TGI [44] was 27.9 µM, the TGI [45] was 8.19 µM and the TGI [46] was 32.7 µM. For the same molecule, the TGI [47] was 59.9 µM, the TGI [48] was 28.6 µM and the TGI [55] was greater than 62.6 µM. The TGI [49] was greater than 54.9 µM, the TGI [50] was greater than 56.5 µM and the TGI [56] was 5.65 µM. It also gave a TGI [51] of 9.28 µM and a TGI [52] greater than 61.7 µM.
Cc1c(C(=O)CSc2nc3ccccc3c(=O)n2-c2ccccc2)c(=O)n(-c2ccccc2)n1C showed a TGI [1] greater than 100 µM, a TGI [2] greater than 100 µM and a TGI [4] greater than 100 µM. The TGI [5] was 69.2 µM, the TGI [6] was greater than 100 µM and the TGI [7] was greater than 100 µM. For the same molecule, the TGI [8] was greater than 100 µM, the TGI [9] was greater than 100 µM and the TGI [10] was greater than 100 µM. It also gave a TGI [11] of 66.2 µM, a TGI [12] greater than 100 µM and a TGI [14] greater than 100 µM. It also gave a TGI [57] greater than 100 µM, a TGI [15] greater than 100 µM and a TGI [16] of 41.4 µM. The TGI [17] was greater than 100 µM, the TGI [19] was greater than 100 µM and the TGI [20] was 0.729 µM. For the same molecule, the TGI [21] was greater than 100 µM, the TGI [22] was greater than 100 µM and the TGI [23] was 73.5 µM. The TGI [24] was greater than 100 µM, the TGI [25] was greater than 100 µM and the TGI [26] was greater than 100 µM. It also gave a TGI [27] greater than 100 µM, a TGI [28] greater than 100 µM and a TGI [29] greater than 100 µM. For the same molecule, the TGI [30] was greater than 100 µM, the TGI [58] was greater than 100 µM and the TGI [31] was greater than 100 µM. It also gave a TGI [32] greater than 100 µM, a TGI [33] greater than 100 µM and a TGI [34] greater than 100 µM. The TGI [35] was greater than 100 µM, the TGI [36] was greater than 100 µM and the TGI [53] was 95.8 µM. The TGI [37] was 69.1 µM, the TGI [38] was 38.9 µM and the TGI [39] was 79.5 µM. The TGI [54] was greater than 100 µM, the TGI [40] was greater than 100 µM and the TGI [41] was greater than 100 µM. It also gave a TGI [43] greater than 100 µM, a TGI [45] greater than 100 µM and a TGI [46] greater than 100 µM. It also gave a TGI [47] greater than 100 µM, a TGI [49] greater than 100 µM and a TGI [50] of 79.4 µM. The TGI [56] was greater than 100 µM, the TGI [51] was greater than 100 µM and the TGI [52] was 69.2 µM.
